Measurements from publication PMC9694488, “Amyloid beta and its naturally occurring N-terminal variants are potent activators of human and mouse formyl peptide receptor 1” (The Journal of Biological Chemistry, 2022).
“Also recorded” adds a separate entry of the source.

Key:
U87 cells [1] = assay: Chemotaxis assay, U87 cells; assay type: cell-based, human; conditions: n = 3, N = 1; for migration of U87 cells towards receptor subtype-specific activator: 10 nM; for migration (chemotaxis) of U87 cells: IncuCyte S3, ClearView plate, 24 h, 0.5% FCS
Description: Cell migration assays were performed and analyzed with an IncuCyte S3 Life Cell Imaging System (EssenBio Science). […] Approximately, 1000 cells were placed into the top chamber of each well of a 96-well ClearView Plate (EssenBioscience). Chemoattractants were mixed in 200 μl medium and then placed in the corresponding bottom chambers. Image acquisition was performed hourly for 24 h on both sides of a membrane separating the top and bottom chambers. Subsequent analysis was performed using the IncuCyte S3 software.

U87 cells [2] = assay: Ca2+ imaging cross-desensitization, U87 cells; assay type: cell-based, human; conditions: n = 1, N = 3
From the text: Left: Representative image of gel electrophoresis after reverse transcription polymerase chain reaction with primers for all hFPRs. Right: Quantification of complementary DNA for all FPRs obtained through reverse transcription quantitative polymerase chain reaction, n = 5, N = 2. One-way ANOVA test, Dunnett post hoc test. B, left: representative immunocytochemistry staining of U87 cells and transfected HEK293T cells with FPR subtype–specific antibodies (red) and nuclei staining (blue). For visibility, brightness and contrast were adjusted for U87 cells and HEK293T cells differently; for absolute intensity comparison pictures with equal settings for exposure time, brightness and contrast pictures are shown in Figure S5. Scale bars indicate 100 μm. Right: Quantification of the mean FPR staining in U87 cells (green) in comparison to FPR-transfected HEK293T cells (red). Analysis was performed on images acquired with the same settings. n = 2, N = 5 for U87 cells and n = 2, N = 2 for HEK293T cells. One-way ANOVA test, Tukey post hoc test. […] One-way ANOVA test, Dunnett post hoc test. […] Representative […] traces (left) and mean Ca^2+ peak responses (right) to a secondary Aβ17-40 stimulus after pre-application of SP4 or SP6 as a first stimulus, n = 1, N = 3; t test. […] One-way ANOVA test, Tukey post hoc test. All Error bars, S.D. ∗p ≤ 0.05, ∗∗p ≤ 0.01, ∗∗∗p ≤ 0.001; ns, no significance. […]

U87 cells [3] = assay: Ca2+ imaging, U87 cells; conditions: for Ca2+ response of U87 cells to receptor subtype-specific activator: 10 nM, n = 3, N = 3; for Ca2+ response of U87 cells / U87 concentration response curve compared with FPR-transfected HEK293T cells: n = 3, N = 1
Description: Peptides in HBSS or Tris–NaCl were dissolved in an ultrasonic bath as described above. […] The Aβ17-40 peptide used throughout the main text was purchased from Anaspec/MoBiTec and validated with Aβ17-40 peptides from Sigma-Aldrich and Synpeptide. Aβ11-40 was obtained from Peptides&Elephants. […] Tert-Boc-FLFL (tBoc2) was purchased from Bachem and dissolved in DMSO at 30 mM. f-MLFYFS (Psy-SP6) and f-MAMKKL (Sal-SP4) were obtained from VCPBIO and dissolved at 10 mM in DMSO (Psy-SP6) or at 1 mM in C1 (SP4), respectively. WKWMVm-NH2 and WKWMVm-CHO were purchased from Proteogenix and VCPBIO, respectively, and dissolved as 1 mM stock solutions in C1. fMLF was purchased from Sigma-Aldrich and also dissolved at 1 mM in C1. All peptides were thawed at room temperature approximately 1 h before each functional experiment, as this time was needed to prepare the compound plates for each measurement.
U87 MG cells (CLS) were cultured in Minimum Essential medium (Biowest) supplemented with 10% (v/v) heat-inactivated FCS (Pan Biotech), 1 unit/ml penicillin-streptomycin (Biowest), 2 mM L-glutamine (Biowest), and 1 unit/ml non-essential amino acids (Biowest) until 50 to 60% confluence. For calcium imaging and immunostaining, on average 2500 cells were seeded in each well of PDL-coated (10 μg/ml in PBS, Sigma) black optical 96-well μCLEAR-plates (Greiner Bio-One).
(§1) Cell population responses of transfected HEK293T cells and U87 cells were recorded using a Flexstation III microplate reader (Molecular Devices). Briefly, cells were incubated with 2 μM Calbryte 520 AM (AAC Bioquest) for 2 h at room temperature in C1 assay buffer with 5 mM glucose (Carl Roth). Before each experiment, cells were rinsed three times with C1. Experiments with HEK293T cells were conducted 48 h after transfection, while experiments with U87 cells were performed 24 h after seeding. Acquisition of baseline fluorescence was performed for 25 s before ligand application, and cell population response was measured for 125 s after application.

hFPR3 = assay: Ca2+ imaging, HEK293T transiently transfected with hFPR3; conditions: for activation of hFPR3: 10 nM, n = 1, N = 3 (Fig. S6C); for threshold for minimal detectable activation, hFPR3: Ca2+ imaging, transfected HEK293T + Gα16, Calbryte 520, C1 buffer pH 7.2, n = 3, N = 1
Description: (§2) All peptides were thawed at room temperature approximately 1 h before each functional experiment, as this time was needed to prepare the compound plates for each measurement.
(§3) HEK293T cells (ATCC) were cultured in Dulbecco’s Modified Eagle’s medium (DMEM, Biowest) supplemented with 10% (v/v) heat-inactivated fetal calf serum (FCS, Pan Biotech), 1 unit/ml penicillin-streptomycin (Biowest), and 2 mM L-glutamine (Biowest) until 80% confluence. For transfection, approximately 2000 cells were seeded in each well of poly-D-lysine–coated (PDL) (10 μg/ml in PBS, Sigma) black optical 96-well μCLEAR-plates (Greiner Bio-One). Cells were transfected after 24 h using jetPEI (Polyplus-transfection SA) with 0.125 μg of DNA plasmids encoding the respective receptors and equal amounts of a plasmid encoding the G protein subunit Gα16 since this subunit is needed to trigger FPR-dependent calcium signals in HEK293 cells ([50], [70]). The medium of transfected cells was changed 24 h after transfection. For mock transfections, the proportion of the FPR-containing plasmids were substituted by an empty pcDNA3.1 vector.
as §1

FPR1 and FPR2 = conditions: cited from earlier work
mouse and human FPR1 = assay: Ca2+ imaging, HEK293T with mouse and human FPR1 taken together; assay type: cell-based
glial cells = conditions: cited from earlier work
From the text: In summary, our study provides a systematic overview over the capability of different mouse and human FPRs to interact with Aβ in different buffer systems. To our knowledge, we are the first to report an activation of hFPR3 by Aβ and the first to identify N-abridged Aβ fragments as activators of FPRs.

hFPR1, hFPR2, hFPR3 = assay: Ca2+ imaging, human FPRs taken together; assay type: cell-based; conditions: transfected HEK293T
mFpr2 = assay: Ca2+ imaging, HEK293T transiently transfected with mFpr2; assay type: cell-based, mouse; conditions: n = 3, N = 1; for threshold for minimal detectable activation, mFpr2: Ca2+ imaging, transfected HEK293T + Gα16, Calbryte 520, C1 buffer pH 7.2; for mFpr2 response concentration: concentration response curves
Description: as §2, §3, §1

human and mouse FPRs [4] = assay: Ca2+ imaging, FPR-transfected HEK293T (several human and mouse FPRs taken together); assay type: cell-based; conditions: n = 3, N = 1; for Ca2+ responses on FPRs: 5 μM
Description: as §2, §3, §1

hFPR2 = assay: Ca2+ imaging, HEK293T transiently transfected with hFPR2; assay type: cell-based, human; conditions: n = 3, N = 1; for threshold for minimal detectable activation, hFPR2: Ca2+ imaging, transfected HEK293T + Gα16, Calbryte 520, C1 buffer pH 7.2; for hFPR2 response concentration: concentration response curves
Description: as §2, §3, §1

hFPR1 = assay: Ca2+ imaging, HEK293T transiently transfected with hFPR1; assay type: cell-based, human; conditions: n = 3, N = 1; for threshold for minimal detectable activation, hFPR1: Ca2+ imaging; for sensitivity relative to full-length Aβ1-42, hFPR1: concentration response curves
mFpr1 = assay: Ca2+ imaging, HEK293T transiently transfected with mFpr1; assay type: cell-based, mouse; conditions: n = 3, N = 1; for threshold for minimal detectable activation, mFpr1: Ca2+ imaging, transfected HEK293T + Gα16, Calbryte 520, C1 buffer pH 7.2; for sensitivity relative to full-length Aβ1-42, mFpr1: concentration response curves
human and mouse FPRs [5] = conditions: control ligand, 10 μM; cited from earlier work
Description: Cell population responses of transfected HEK293T cells and U87 cells were recorded using a Flexstation III microplate reader (Molecular Devices). Briefly, cells were incubated with 2 μM Calbryte 520 AM (AAC Bioquest) for 2 h at room temperature in C1 assay buffer with 5 mM glucose (Carl Roth). Before each experiment, cells were rinsed three times with C1. Experiments with HEK293T cells were conducted 48 h after transfection, while experiments with U87 cells were performed 24 h after seeding.

[6] = transfected HEK293T + Gα16, Calbryte 520, assay buffer C1 pH 7.2, Flexstation III, peptide stock 5 mM in DMSO

## f-MAMKKL [SP4, reference compound]
U87 cells [1]
  migration of U87 cells towards receptor subtype-specific activator: do not respond to the hFPR2 agonist SP4; also recorded: not towards the FPR2-specific SP4
U87 cells [2]
  effect of pre-application on U87 Ca2+ response to secondary Aβ17-40 stimulus: not influenced by pre-application of the FPR2-specific agonist SP4
U87 cells [3]
  Ca2+ response of U87 cells to receptor subtype-specific activator: not to the hFPR2-specific SP4 stimulus
hFPR3
  activation of hFPR3: would not activate hFPR3

## C[S+](C)[O-] [DMSO, dimethyl sulfoxide]
FPR1 and FPR2
  agonism at FPR1 and FPR2: agonist for FPR1 and FPR2

## Aβ17-40: N-abridged naturally occurring Aβ variant, from Anaspec, validated with Sigma-Aldrich and Synpeptide peptides (LVFFAEDVGSNKGAIIGLMVGGVV; Amyloid-beta protein 40; UniProt P05067 688-711, looked up, fragment)
Mouse and human FPR1
  activation of mouse and human FPR1 (in words): very potent activators of mouse and human FPR1, acting at nanomolar concentrations; also recorded: drastically lower concentrations than longer peptides
U87 cells [1]
  migration (chemotaxis) of U87 cells: Aβ11-40 but not Aβ17-40 evoked cell migration; also recorded: only Aβ11-40 but not Aβ17-40 induced migration; also recorded: Aβ11-40– but not Aβ17-40–induced chemotaxis of U87 cells
Glial cells
  activation of glial cells: shown to activate glial cells
hFPR1, hFPR2, hFPR3
  response of hFPRs (in addition to hFPR2): all other hFPRs also responded
mFpr2
  threshold for minimal detectable activation, mFpr2: 1 µM
  mFpr2 response concentration: only responded to micromolar concentrations
Human and mouse FPRs [4]; 5 μM Aβ17-40 from Anaspec, Synpeptide, Sigma-Aldrich
  susceptibility of FPR responses to manufacturer-dependent effects: less susceptible to manufacturer-dependent effects than full length Aβ
Human and mouse FPRs [4]
  Ca2+ responses on FPRs: elicited responses on all FPRs that we could previously activate with the full-length Aβ1-42
hFPR2
  threshold for minimal detectable activation, hFPR2: 1 µM
  hFPR2 response concentration: only responded to micromolar concentrations
U87 cells [3]
  Ca2+ response of U87 cells: induced a strong calcium flux; also recorded: pronounced activation of U87 cells
  U87 concentration response curve compared with FPR-transfected HEK293T cells: clear correlation with the hFPR1 response; also recorded: remarkably similar to hFPR1
hFPR1; [6]
  threshold for minimal detectable activation, hFPR1: 100 nM
hFPR1
  sensitivity relative to full-length Aβ1-42, hFPR1: more than 10 fold
hFPR3
  threshold for minimal detectable activation, hFPR3: 1 µM
mFpr1
  threshold for minimal detectable activation, mFpr1: 30 nM
  sensitivity relative to full-length Aβ1-42, mFpr1: more than 10 fold

## WKWMVm-CHO
Human and mouse FPRs [5]
  activation of human and mouse FPRs: potent activators of all three human and mouse FPRs

## Aβ11-40: N-abridged naturally occurring Aβ variant, from Peptides&Elephants
Mouse and human FPR1
  activation of mouse and human FPR1 (in words): very potent activators of mouse and human FPR1, acting at nanomolar concentrations; also recorded: drastically lower concentrations than longer peptides
U87 cells [1]
  migration (chemotaxis) of U87 cells: Aβ11-40 but not Aβ17-40 evoked cell migration; also recorded: only Aβ11-40 but not Aβ17-40 induced migration; also recorded: Aβ11-40– but not Aβ17-40–induced chemotaxis of U87 cells
Glial cells
  activation of glial cells: shown to activate glial cells
hFPR1, hFPR2, hFPR3
  response of hFPRs (in addition to hFPR2): all other hFPRs also responded
mFpr2
  threshold for minimal detectable activation, mFpr2: 1 µM
  mFpr2 response concentration: only responded to micromolar concentrations
Human and mouse FPRs [4]
  Ca2+ responses on FPRs: elicited responses on all FPRs that we could previously activate with the full-length Aβ1-42
hFPR2
  threshold for minimal detectable activation, hFPR2: 1 µM
  hFPR2 response concentration: only responded to micromolar concentrations
U87 cells [3]
  Ca2+ response of U87 cells: induced a strong calcium flux; also recorded: pronounced activation of U87 cells
  U87 concentration response curve compared with FPR-transfected HEK293T cells: clear correlation with the hFPR1 response; also recorded: remarkably similar to hFPR1
hFPR1; [6]
  threshold for minimal detectable activation, hFPR1: 100 nM
hFPR1
  sensitivity relative to full-length Aβ1-42, hFPR1: more than 10 fold
hFPR3
  threshold for minimal detectable activation, hFPR3: 1 µM
mFpr1
  threshold for minimal detectable activation, mFpr1: 30 nM
  sensitivity relative to full-length Aβ1-42, mFpr1: more than 10 fold

## f-MLFYFS [SP6, reference compound]
U87 cells [1]
  migration of U87 cells towards receptor subtype-specific activator: migrate towards the hFPR1-stimulus SP6; also recorded: only migrated towards the FPR1-specific SP6
U87 cells [2]
  effect of pre-application on U87 Ca2+ response to secondary Aβ17-40 stimulus: abolished by the FPR1 activator SP6; also recorded: absent after pre-application of the FPR1-specific agonist SP6
U87 cells [3]
  Ca2+ response of U87 cells to receptor subtype-specific activator: U87 cells respond to the potent hFPR1 activator SP6; also recorded: only responded to the hFPR1-specific SP6 stimulus with a calcium signal
hFPR3
  activation of hFPR3: would not activate hFPR3

## Aβ17-43: Aβ fragment of earlier studies (LVFFAEDVGSNKGAIIGLMVGGVVIAT; Amyloid-beta protein 42; UniProt P05067 688-714, looked up, fragment)
Glial cells; human glial cells
  activation of human glial cells: only lead to a partial activation of human glial cells

## Aβ1-40: Amyloid beta peptide, human WT sequence, from Anaspec/MoBiTec
hFPR1, hFPR2, hFPR3
  response of hFPRs (in addition to hFPR2): all other hFPRs also responded
mFpr2
  threshold for minimal detectable activation, mFpr2: 5 µM
hFPR2
  threshold for minimal detectable activation, hFPR2: 3 µM
hFPR1; transfected HEK293T + Gα16, Calbryte 520, assay buffer C1 pH 7.2, peptide stock 30 μM in C1
  threshold for minimal detectable activation, hFPR1: 3000 nM
hFPR3
  threshold for minimal detectable activation, hFPR3: 3 µM
mFpr1
  threshold for minimal detectable activation, mFpr1: 500 nM

## WKWMVm-NH2
Human and mouse FPRs [5]
  activation of human and mouse FPRs: potent activators of all three human and mouse FPRs
